Here are results for 34 compounds from US20260151375A1, “CDK2 INHIBITORS AND METHODS OF USING THE SAME” (Cedilla Therapeutics, Inc., priority 2022, published 2026).

The structures appear in SMILES notation.

Assay [1] deals with T1, CDK2/Cyclin E1 (Homo sapiens, UniProt P24941).
T1 construct: purchased 14-475
As to the kind of experiment: Caliper Assay (LabChip EZ Reader mobility shift assay), inhibition of CDK2/Cyclin E1 activity. The following applies: 2.5 nM CDK2/Cyclin E1(14-475), 100 μM ATP, 30 min preincubation; read-out: Caliper Assay (CDK2/CCNE1): IC50. In kind it is biochemical. As for the experimental part: Inhibition of CDK2/Cyclin E1 activity in the presence of compounds of the present disclosure was evaluated using a Caliper LabChip® EZ Reader mobility shift assay. In the assay, activated CDK2/Cyclin E1 catalyzes the phosphorylation of a fluorescently tagged peptide 5-FAM-QSPKKG-CONH2 (PerkinElmer, FL Peptide 18) which induces a difference in capillary electrophoresis mobility. The peptide substrate and product were measured, and the conversion ratio was used to determine the inhibition (as % activity and IC50 values) of CDK2/Cyclin E1. Reactions contained 50 mM HEPES pH 7.5, 10 mM MgCl2, 1 mM EDTA, 2 mM DTT, 0.01% Brij35, 0.5 mg/mL BSA, 0.1% DMSO, 2.5 nM CDK2/Cyclin E1(14-475), 100 μM ATP, and 1.5 μM fluorescent peptide substrate.
Dose titrations of inhibitors in 100% DMSO were combined with 3.25 nM CDK2/Cyclin E1(14-475) and 130 μM of ATP in reaction buffer. The mixtures were incubated for 30 minutes before the addition of fluorescent peptide substrate to initiate the kinase reaction. The final conditions were 2.5 nM CDK2/Cyclin E1(14-475), 100 μM ATP, and 1.5 μM fluorescent peptide. The reactions were stopped after 100 minutes with the addition of EDTA (6 mM final EDTA concentration). The stopped reactions were analyzed on a Caliper LabChip© EZ Reader II. The conversion ratios were normalized to yield % activity, plotted against compound concentration, and fit to a four-parameter equation to determine the IC50 for each compound.

In assay [2] the test system is Kuramochi cells. As to the kind of experiment: IncuCyte Kuramochi Assay (cell proliferation). In kind it is cell-based. The settings on record: 72 h, Kuramochi cells labeled with mApple-H2B, cell count, read-out: IncuCyte - Kuramochi RB-WT: IC50. As for the experimental part: IncuCyte® assay was used to measure the effect of disclosed compounds on cell proliferation. Fluorescent microscopy images of cells were taken immediately after compound treatment and 72 hours later. Image analysis software was used to obtain cell counts as a function of compound concentration. Kuramochi cells labeled with mApple-H2B were seeded on 384-well assay-ready plates. Plates were placed in an IncuCyte® (Sartorius) and scanned at 0 and 72 hours. IncuCyte® software was used to count the number of fluorescent nuclei in each well. The fold change in cell count from 0 to 72 hours in wells treated with increasing compounds concentrations (10 pts, ½ log dilution, 20 μM top concentration) was normalized to DMSO control wells. The normalized cell counts were fit with dose response curves and a […] was calculated.

For `O=C(c1cncs1)N1CC(c2nnc(C(F)(F)c3ccc(Cl)c(Cl)c3)o2)C2(C1)CN(c1ncccn1)C2` (centres unmarked) [I-59, (8-(5-((3,4-dichlorophenyl)difluoromethyl)-1,3,4-oxadiazol-2-yl)-2-(pyrimidin-2-yl)-2,6-diazaspiro[3.4]octan-6-yl)(thiazol-5-yl)methanone], the IC50 in assay [1] and in assay [2] was more than 10 µM in each case.

On to `O=C(c1cncs1)N1CC(c2nnc(Cc3ccc(Cl)c(Cl)c3)o2)C2(C1)CN(c1cccc[n+]1[O-])C2` (centres unmarked) [I-60], for which the IC50 in assay [1] and in assay [2] was more than 10 µM each time.

Regarding `CC1(C)C[C@@H]1C(=O)N1CC2(CN(C(=O)c3cncs3)CC2c2nnc(C3(c4ccc(Cl)c(Cl)c4)CC(O)C3)o2)C1` (some centres unmarked) [I-61], the IC50 is 0.01 to 0.1 µM in assay [1] and more than 10 µM in assay [2].

In the case of `CC(C)(c1coc(C2CCCC2)n1)c1nc(C2CN(C(=O)c3cncs3)CC23CN(C(=O)[C@H]2CC2(C)C)C3)no1` (some centres unmarked) [I-62], the figures for the IC50 in assay [1] and in assay [2] were 0.01 to 0.1 µM and 5 to 10 µM, respectively.

`Cc1cc(O)nn1C(C)c1nc(C2CN(C(=O)c3cncs3)CC23CN(C(=O)[C@H]2CC2(C)C)C3)no1` (some centres unmarked) [I-63]: the IC50 in assay [1] is 1 to 10 µM; in assay [2], more than 10 µM.

With `CC(c1nc(C2CN(C(=O)c3cncs3)CC23CN(C(=O)[C@H]2CC2(C)C)C3)no1)n1cc(C2CCCC2)cn1` (some centres unmarked) [I-64], the IC50 in assay [1] is 0.01 to 0.1 µM; in assay [2] it was more than 10 µM.

Take `CC1(C)C[C@@H]1C(=O)N1CC2(CN(C(=O)c3cncs3)CC2c2nnc(C(F)(F)c3ccc(Cl)cc3)o2)C1` (some centres unmarked) [I-65]: the IC50 is 1 to 10 µM in assay [1] and more than 10 µM in assay [2].

As for `Cc1nc(C)c(C(=O)N2CC(c3nnc(Cc4cccc(C5CCOCC5)n4)o3)C3(C2)CN(C(=O)[C@H]2CC2(C)C)C3)s1` (stereo partly drawn) [I-66, (2-((S)-2,2-dimethylcyclopropane-1-carbonyl)-8-(5-((6-(tetrahydro-2H-pyran-4-yl)pyridin-2-yl)methyl)-1,3,4-oxadiazol-2-yl)-2,6-diazaspiro[3.4]octan-6-yl)(2,4-dimethylthiazol-5-yl)methanone], the figures for the IC50 in assay [1] and in assay [2] were 0.1 to 1 µM and more than 10 µM, respectively.

`CC1(C)C[C@@H]1C(=O)N1CC2(CN(C(=O)c3cncs3)CC2c2nnc(Cc3nc4ccccc4o3)o2)C1` (some centres unmarked) [I-67]: the IC50 was 1 to 10 µM in assay [1] and more than 10 µM in assay [2].

Consider `COc1ccc(C(F)(F)c2nnc(C3CN(C(=O)c4cncs4)CC34CN(C(=O)[C@H]3CC3(C)C)C4)o2)cc1` (some centres unmarked) [I-68], for which the results for the IC50 in assay [1] and in assay [2] were 0.1 to 1 µM and more than 10 µM, respectively.

As to `CC1(C)C[C@@H]1C(=O)N1CC2(CN(C(=O)c3cncs3)CC2c2nnc(C(F)(F)c3ccc(Br)cc3)o2)C1` (some centres unmarked) [I-69], the results for the IC50 in assay [1] and in assay [2] were 0.1 to 1 µM and more than 10 µM, respectively.

`CC1(C)C[C@@H]1C(=O)N1CC2(CN(C(=O)c3cncs3)CC2c2nnc(C(F)(F)c3ccccc3)o2)C1` (some centres unmarked) [I-70]: the IC50 was 1 to 10 µM in assay [1] and more than 10 µM in assay [2].

For the compound `CC1(C)C[C@@H]1C(=O)N1CC2(CN(C(=O)c3cncs3)CC2c2nnc(Cc3ccc4c(c3)CCCO4)o2)C1` (some centres unmarked) [I-71], the IC50 in assay [1] was 1 to 10 µM; in assay [2], more than 10 µM.

For the compound `CC1(C)C[C@@H]1C(=O)N1CC2(CN(C(=O)c3cncs3)CC2c2nnc(C(F)(F)c3ccc(C#N)cc3)o2)C1` (some centres unmarked) [I-72], the figures for the IC50 in assay [1] and in assay [2] were 1 to 10 µM and more than 10 µM, respectively.

In the case of `CC1(C)C[C@@H]1C(=O)N1CC2(CN(C(=O)c3cncs3)CC2c2nnc(C(F)(F)c3cccc4ccccc34)o2)C1` (some centres unmarked) [I-73], the IC50 was 0.1 to 1 µM in assay [1] and more than 10 µM in assay [2].

On to `CC(c1nc(C2CN(C(=O)c3cncs3)CC23CN(C(=O)[C@H]2CC2(C)C)C3)no1)n1ncc2ccccc21` (some centres unmarked) [I-74], for which the results for the IC50 in assay [1] and in assay [2] were 1 to 10 µM and more than 10 µM, respectively.

On to `CC(c1nc(C2CN(C(=O)c3cncs3)CC23CN(C(=O)[C@H]2CC2(C)C)C3)no1)n1cc2ccccc2n1` (some centres unmarked) [I-75], for which the IC50 in assay [1] is 0.1 to 1 µM; in assay [2], more than 10 µM.

In the case of `CC1(C)C[C@@H]1C(=O)N1CC2(CN(C(=O)c3cncs3)CC2c2nnc(C(F)(F)c3ccc(F)c(F)c3)o2)C1` (some centres unmarked) [I-76], the figures for the IC50 in assay [1] and in assay [2] were 0.1 to 1 µM and more than 10 µM, respectively.

For the compound `CC(c1cc[nH]n1)c1nc(C2CN(C(=O)c3cncs3)CC23CN(C(=O)[C@H]2CC2(C)C)C3)no1` (stereo partly drawn) [I-77, (8-(5-(1-(1H-pyrazol-3-yl)ethyl)-1,2,4-oxadiazol-3-yl)-2-((S)-2,2-dimethylcyclopropane-1-carbonyl)-2,6-diazaspiro[3.4]octan-6-yl)(thiazol-5-yl)methanone], the IC50 in assay [1] is 1 to 10 µM; in assay [2] it was more than 10 µM.

Consider `CC(c1cccc(C2CCOCC2)n1)c1nnc(C2CN(C(=O)c3cncs3)CC23CN(C(=O)[C@H]2CC2(C)C)C3)o1` (some centres unmarked) [I-78], for which the IC50 in assay [1] was 0.1 to 1 µM; in assay [2], more than 10 µM.

As to `CC(C)(c1cc[nH]n1)c1nc(C2CN(C(=O)c3cncs3)CC23CN(C(=O)[C@H]2CC2(C)C)C3)no1` (some centres unmarked) [I-79], the values for the IC50 in assay [1] and in assay [2] were 1 to 10 µM and more than 10 µM, respectively.

As for `O=C(c1cncs1)N1CC(c2nnc(Cc3cccc(C4CCOCC4)n3)o2)C2(C1)CN(c1ncco1)C2` (centres unmarked) [I-80], the IC50 in assay [1] and in assay [2] was more than 10 µM throughout.

In the case of `CC(c1nc(C2CN(C(=O)c3cncs3)CC23CN(C(=O)[C@H]2CC2(C)C)C3)no1)n1nc(Cl)cc1Cl` (some centres unmarked) [I-81], the IC50 was in the range of 1 to 10 µM in assay [1] and 0.5 to 5 µM in assay [2].

As for `CC(c1nc(C2CN(C(=O)c3cncs3)CC23CN(C(=O)[C@H]2CC2(C)C)C3)no1)n1ccc(C2CCOCC2)n1` (some centres unmarked) [I-82], the results for the IC50 in assay [1] and in assay [2] were 0.1 to 1 µM and more than 10 µM, respectively.

Regarding `CC1(C)C[C@@H]1C(=O)N1CC2(CN(C(=O)c3cncs3)CC2c2nnc(Cc3cccc(C4CCCCO4)n3)o2)C1` (some centres unmarked) [I-83], the IC50 in assay [1] is 0.1 to 1 µM; in assay [2], more than 10 µM.

`CC1(C)C[C@@H]1C(=O)N1CC2(CN(C(=O)c3cnn(Cc4ccccc4)c3)CC2c2noc(COC3CCCC3)n2)C1` (some centres unmarked) [I-84]: the IC50 in assay [1] is 1 to 10 µM; in assay [2], more than 10 µM.

Take `Cc1cc(C)n(Cc2nc(C3CN(C(=O)c4cnn(Cc5ccccc5)c4)CC34CN(C(=O)[C@H]3CC3(C)C)C4)no2)n1` (some centres unmarked) [I-85]: the IC50 in assay [1] was 1 to 10 µM; in assay [2], more than 10 µM.

Take `COC(=O)c1coc(C2CN(C(=O)c3cnn(Cc4ccccc4)c3)CC23CN(C(=O)[C@H]2CC2(C)C)C3)n1` (stereo partly drawn) [I-86, methyl 2-(6-(1-benzyl-1H-pyrazole-4-carbonyl)-2-((S)-2,2-dimethylcyclopropane-1-carbonyl)-2,6-diazaspiro[3.4]octan-8-yl)oxazole-4-carboxylate]: the IC50 in assay [1] and in assay [2] was more than 10 µM throughout.

On to `CC1(C)C[C@@H]1C(=O)N1CC2(CN(C(=O)c3cnn(Cc4ccccc4)c3)CC2c2ccc(NC(=O)C3CCCCC3)cc2)C1` (stereo partly drawn) [I-87, N-(4-(6-(1-benzyl-1H-pyrazole-4-carbonyl)-2-((S)-2,2-dimethylcyclopropane-1-carbonyl)-2,6-diazaspiro[3.4]octan-8-yl)phenyl)cyclohexanecarboxamide], for which the figures for the IC50 in assay [1] and in assay [2] were 1 to 10 µM and 5 to 10 µM, respectively.

As to `C[C@H](NC(=O)c1coc(C2CN(C(=O)c3cnn(Cc4ccccc4)c3)CC23CN(C(=O)[C@H]2CC2(C)C)C3)n1)c1ccccc1` (some centres unmarked) [I-88], the values for the IC50 in assay [1] and in assay [2] were 0.1 to 1 µM and more than 10 µM, respectively.

Take `C[C@H](NC(=O)c1coc(C2CN(C(=O)c3cnn(Cc4ccccc4)c3)CC23CN(C(=O)[C@H]2CC2(C)C)C3)n1)C1CCCCC1` (some centres unmarked) [I-89]: the IC50 fell in the range of 0.1 to 1 µM in assay [1] and 5 to 10 µM in assay [2].

`C[C@@H](NC(=O)c1coc(C2CN(C(=O)c3cnn(Cc4ccccc4)c3)CC23CN(C(=O)[C@H]2CC2(C)C)C3)n1)C1CCCCC1` (some centres unmarked) [I-90]: the IC50 in assay [1] lay in the range of 0.01 to 0.1 µM; in assay [2], 5 to 10 µM.

For the compound `CC1(C)C[C@@H]1C(=O)N1CC2(CN(C(=O)c3cnn(Cc4ccccc4)c3)CC2c2nc(C(=O)NCc3ccccc3)co2)C1` (stereo partly drawn) [I-91, N-benzyl-2-(6-(1-benzyl-1H-pyrazole-4-carbonyl)-2-((S)-2,2-dimethylcyclopropane-1-carbonyl)-2,6-diazaspiro[3.4]octan-8-yl)oxazole-4-carboxamide], the values for the IC50 in assay [1] and in assay [2] were 0.1 to 1 µM and more than 10 µM, respectively.

With `CC1(C)C[C@@H]1C(=O)N1CC2(CN(C(=O)c3cnn(Cc4ccccc4)c3)CC2c2nc(C(=O)NCC3CCCCC3)co2)C1` (some centres unmarked) [I-92], the IC50 in assay [1] was in the range of 0.01 to 0.1 µM; in assay [2], 5 to 10 µM.
